Values of other authors, collected in US8697633B2, “Dissolution of arterial plaque” (AtheraNova Operations, Inc., priority 2005, dated 2014).

Key:
atherosclerotic plaque [1] = details: dietary HDCA, relative to mice not provided HDCA
atherosclerotic plaque [2] = details: 40 mg/day

In the case of `C[C@H](CCC(=O)O)[C@H]1CC[C@H]2[C@@H]3C[C@H](O)[C@@H]4C[C@H](O)CC[C@]4(C)[C@H]3CC[C@]12C` [HDCA, hyodeoxycholic acid], the “rate of formation of atherosclerotic plaque” value (atherosclerotic plaque [1]) is given as “reduced rate of formation of atherosclerotic plaque”.
In the case of `CC(C)c1nc(N(C)S(C)(=O)=O)nc(-c2ccc(F)cc2)c1/C=C/[C@@H](O)C[C@@H](O)CC(=O)O` [rosuvastatin], the “modulation of LDL, HDL, and triglyceride levels” value (atherosclerotic plaque [2]) is given as “particularly effective”, the “reduction of normalized total atheroma volume” value (atherosclerotic plaque [2]; after 2 years, SD=11.1) is given as 6.7% and the “reduction of plaque volume in the most diseased segments of vessels” value (atherosclerotic plaque [2]; after 2 years, SD=13.7) is given as 8.5%.
